One assay concerns L-428. Briefly: Antiproliferative against human L428 cells incubated for 96 hrs by cellTiter-Glo assay. In kind it is functional, cell-based. The conditions noted are these: L-428, 96 h.
A further assay relates to DEL. Briefly: Antiproliferative against human DEL cells incubated for 96 hrs by cellTiter-Glo assay. In kind it is functional, cell-based.
In another assay the test system is L-540. Briefly: Antiproliferative against human L540cy cells incubated for 96 hrs by cellTiter-Glo assay. The conditions noted are these: L-540, 96 h. It is filed as functional, cell-based. (In general: Cellular ATP, detected with luciferase, serves as a proxy for viable cell number.)
Assay [1] is described as follows: Antiproliferative against human DEL/BVR cells incubated for 96 hrs by cellTiter-Glo assay. In kind it is functional, cell-based.
For a further assay, the target named is Tubulin (Homo sapiens) (UniProt P68371+Q9H4B7+P0DPH7+P68366+Q13509+Q71U36+P04350+Q3ZCM7+P07437+P68363+Q9BQE3+Q6PEY2+Q13885+Q9BVA1+Q9BUF5). The assay can be described thus: Binding affinity to tubulin (unknown origin) by fluorescence polarization displacement assay. It is filed as protein-complex assay.

For `CCO[C@H](C[C@H](C(C)C)N(C)C(=O)[C@@H](NC(=O)[C@H]1CCCCN1C)[C@@H](C)CC)c1nc(C(=O)N[C@@H](Cc2ccccc2)C[C@H](C)C(=O)O)cs1`, the EC50 with L-428 is 0.13 nM; in the assay with DEL it was 0.04 nM; with L-540 it was 0.4 nM; in assay [1], 1 nM. The relative binding affinity (RBA) on Tubulin (Homo sapiens) amounted to 0.27.
As to `CCO[C@H](C[C@H](C(C)C)N(C)C(=O)[C@@H](NC(=O)[C@H]1CCCCN1C)[C@@H](C)OC)c1nc(C(=O)N[C@@H](Cc2ccccc2)C[C@H](C)C(=O)O)cs1`, the figures for the EC50 (in the assay on DEL; in the assay with L-540; in assay [1]) were 1 nM, 6 nM and 66 nM, respectively. At Tubulin (Homo sapiens), this compound gave a relative binding affinity (RBA) of 0.03.
On to `CCO[C@H](C[C@H](C(C)C)N(C)C(=O)[C@@H](NC(=O)[C@H]1CCCCN1C)C(CC)CC)c1nc(C(=O)N[C@@H](Cc2ccccc2)C[C@H](C)C(=O)O)cs1`, for which the EC50 in the assay on DEL is 0.4 nM; with L-540, 1 nM; in assay [1], 4 nM. On Tubulin (Homo sapiens), the relative binding affinity (RBA) was 0.2.
Taken in the same sequence, the figures for `CCO[C@H](C[C@H](C(C)C)N(C)C(=O)[C@@H](NC(=O)[C@H]1CCCCN1C)C1CCC1)c1nc(C(=O)N[C@@H](Cc2ccccc2)C[C@H](C)C(=O)O)cs1` were 13 nM, 24 nM, 89 nM and 0.03.
Taken in the same sequence, the figures for `CCO[C@H](C[C@H](C(C)C)N(C)C(=O)[C@@H](NC(=O)[C@H]1CCCCN1C)[C@H](C)OC(C)(C)C)c1nc(C(=O)N[C@@H](Cc2ccccc2)C[C@H](C)C(=O)O)cs1` were 17 nM, 81 nM, 123 nM and 0.06.
Take `C#CCO[C@H](C[C@H](C(C)C)N(C)C(=O)[C@@H](NC(=O)[C@H]1CCCCN1C)[C@@H](C)CC)c1nc(C(=O)N[C@@H](Cc2ccccc2)C[C@H](C)C(=O)O)cs1`: the values for the concentration for a half-maximal effect (EC50) in the assay with L-428 and with L-540 were 0.41 nM and 0.17 nM, respectively. At Tubulin (Homo sapiens), this compound displayed a relative binding affinity (RBA) of 0.59.
For `CCO[C@H](C[C@H](C(C)C)N(C)C(=O)[C@@H](NC(=O)C1CCC(F)(F)CN1C)[C@@H](C)CC)c1nc(C(=O)N[C@@H](Cc2ccccc2)C[C@H](C)C(=O)O)cs1` (mixture of isomers), the figures for the EC50 (in the assay on DEL; in the assay with L-540; in assay [1]) were 9 nM, 15 nM and 66 nM, respectively. Also, on Tubulin (Homo sapiens), the relative binding affinity (RBA) came to 0.07.
With `CCCO[C@H](C[C@H](C(C)C)N(C)C(=O)[C@@H](NC(=O)[C@H]1CCCCN1C)[C@@H](C)CC)c1nc(C(=O)N[C@@H](Cc2ccccc2)C[C@H](C)C(=O)O)cs1`, the concentration giving a half-maximal response (EC50) is 0.39 nM in the assay with L-428 and 0.13 nM in the assay on L-540. Also, at Tubulin (Homo sapiens), the relative binding affinity (RBA) stood at 0.68.
As for `CCCC(=O)O[C@H](C[C@H](C(C)C)N(C)C(=O)[C@@H](NC(=O)[C@H]1CCCCN1C)[C@@H](C)CC)c1nc(C(=O)N[C@@H](Cc2ccccc2)C[C@H](C)C(=O)O)cs1`, the half-maximal effective concentration (EC50) was found to be 0.05 nM in the assay on L-428 and 0.04 nM in the assay with L-540. Besides, the relative binding affinity (RBA) at Tubulin (Homo sapiens) worked out at 0.52.
For the compound `CCO[C@H](C[C@H](C(C)C)N(C)C(=O)[C@@H](NC(=O)C12CC(CCN1C)C2)[C@@H](C)CC)c1nc(C(=O)N[C@@H](Cc2ccccc2)C[C@H](C)C(=O)O)cs1`, the results for the EC50 (in the assay with DEL; in the assay with L-540; in assay [1]) were 0.2 nM, 1 nM and 2 nM, respectively. In addition, at Tubulin (Homo sapiens), the relative binding affinity (RBA) was 0.23.
On to `CCO[C@H](C[C@H](C(C)C)N(C)C(=O)[C@@H](NC(=O)[C@H]1CCCCN1C)[C@H](C)CC)c1nc(C(=O)N[C@@H](Cc2ccccc2)C[C@H](C)C(=O)O)cs1`, for which the EC50 turned out to be 3 nM with DEL, 13 nM with L-540 and 61 nM in assay [1]. On Tubulin (Homo sapiens), this compound displayed a relative binding affinity (RBA) of 0.007.
Taken in the same sequence, the figures for `CCO[C@H](C[C@H](C(C)C)N(C)C(=O)[C@@H](NC(=O)[C@H]1CCCCN1C)[C@@H](C)OC(C)(C)C)c1nc(C(=O)N[C@@H](Cc2ccccc2)C[C@H](C)C(=O)O)cs1` were 0.1 nM, 0.1 nM, 0.4 nM and 0.83.
`CCC(=O)O[C@H](C[C@H](C(C)C)N(C)C(=O)[C@@H](NC(=O)[C@H]1CCCCN1C)[C@@H](C)CC)c1nc(C(=O)N[C@@H](Cc2ccccc2)C[C@H](C)C(=O)O)cs1`: the EC50 was found to be 0.04 nM in the assay with L-428 and 0.06 nM in the assay with L-540. For the same compound, the relative binding affinity (RBA) on Tubulin (Homo sapiens) was found to be 0.97.
In the case of `CC[C@H](C)[C@H](NC(=O)[C@H]1CCCCN1C)C(=O)N(C)[C@H](C[C@@H](OCc1ccccc1)c1nc(C(=O)N[C@@H](Cc2ccccc2)C[C@H](C)C(=O)O)cs1)C(C)C`, the results for the EC50 in the assay with L-428 and in the assay on L-540 were 0.57 nM and 0.4 nM, respectively. The compound also gave a relative binding affinity (RBA) at Tubulin (Homo sapiens) of 0.07.
`CCO[C@H](C[C@H](C(C)C)N(C)C(=O)[C@@H](NC(=O)C1CN(C)CCN1C)[C@@H](C)CC)c1nc(C(=O)N[C@@H](Cc2ccccc2)C[C@H](C)C(=O)O)cs1` (mixture of isomers) yielded an EC50 with L-540 greater than 1000 nM.
For the compound `CCO[C@H](C[C@H](C(C)C)N(C)C(=O)[C@@H](NC(=O)[C@@]1(C)CCCN1C)[C@@H](C)CC)c1nc(C(=O)N[C@@H](Cc2ccccc2)C[C@H](C)C(=O)O)cs1`, the EC50 worked out at 0.3 nM in the assay on DEL, 1 nM in the assay with L-540 and 2 nM in assay [1]. The compound also registered a relative binding affinity (RBA) at Tubulin (Homo sapiens) of 0.38.
With `CC[C@H](C)[C@H](NC(=O)[C@H]1CCCCN1C)C(=O)N(C)[C@H](C[C@@H](OC(=O)CC(C)C)c1nc(C(=O)N[C@@H](Cc2ccccc2)C[C@H](C)C(=O)O)cs1)C(C)C`, the results for the concentration giving a half-maximal response (EC50) in the assay on L-428 and in the assay with L-540 were 0.11 nM and 0.06 nM, respectively. The relative binding affinity (RBA) on Tubulin (Homo sapiens) was 0.26.
Turning to `CCO[C@H](C[C@H](C(C)C)N(C)C(=O)[C@@H](NC(=O)[C@H]1CCCCN1C)[C@H](C)OC)c1nc(C(=O)N[C@@H](Cc2ccccc2)C[C@H](C)C(=O)O)cs1`, the EC50 in the assay on DEL came out at 1 nM; in the assay on L-540, 5 nM; in assay [1] it was 17 nM. In addition, at Tubulin (Homo sapiens), the relative binding affinity (RBA) is 0.001.
As to `CCO[C@H](C[C@H](C(C)C)N(C)C(=O)CNC(=O)[C@H]1CCCCN1C)c1nc(C(=O)N[C@@H](Cc2ccccc2)C[C@H](C)C(=O)O)cs1`, the EC50 is 3300 nM with DEL, 4600 nM with L-540 and 9600 nM in assay [1].
In the case of `CCO[C@H](C[C@H](C(C)C)N(C)C(=O)[C@@H](NC(=O)[C@H]1[C@@H]2CC[C@@H](C2)N1C)[C@@H](C)CC)c1nc(C(=O)N[C@@H](Cc2ccccc2)C[C@H](C)C(=O)O)cs1`, the 50% effective concentration (EC50) amounted to 2 nM in the assay with DEL, 8 nM with L-540 and 15 nM in assay [1]. Further, the relative binding affinity (RBA) on Tubulin (Homo sapiens) was 0.08.
As to `C=CCO[C@H](C[C@H](C(C)C)N(C)C(=O)[C@@H](NC(=O)[C@H]1CCCCN1C)[C@@H](C)CC)c1nc(C(=O)N[C@@H](Cc2ccccc2)C[C@H](C)C(=O)O)cs1`, the concentration giving a half-maximal response (EC50) was determined as 0.15 nM with L-428 and 0.12 nM with L-540. In addition, the relative binding affinity (RBA) on Tubulin (Homo sapiens) is 0.88.
On to `CC[C@H](C)[C@H](NC(=O)[C@H]1CCCCN1C)C(=O)N(C)[C@H](C[C@@H](OC(C)=O)c1nc(C(=O)N[C@@H](Cc2ccccc2)C[C@H](C)C(=O)O)cs1)C(C)C`, for which the half-maximal effective concentration (EC50) in the assay with L-428 turned out to be 0.04 nM; in the assay with L-540, 0.08 nM.
Regarding `C=C(C)CO[C@H](C[C@H](C(C)C)N(C)C(=O)[C@@H](NC(=O)[C@H]1CCCCN1C)[C@@H](C)CC)c1nc(C(=O)N[C@@H](Cc2ccccc2)C[C@H](C)C(=O)O)cs1`, the 50% effective concentration (EC50) in the assay with L-428 stood at 0.12 nM; in the assay on L-540, 0.06 nM. On Tubulin (Homo sapiens), this compound registered a relative binding affinity (RBA) of 0.43.
As for `CCO[C@H](C[C@H](C(C)C)N(C)C(=O)[C@@H](NC(=O)[C@H]1CCCCN1C)C1CCCC1)c1nc(C(=O)N[C@@H](Cc2ccccc2)C[C@H](C)C(=O)O)cs1`, the values for the EC50 (with DEL; in the assay on L-540; in assay [1]) were 0.1 nM, 0.2 nM and 1 nM, respectively. Further, the relative binding affinity (RBA) at Tubulin (Homo sapiens) is 0.45.
For the compound `CC[C@H](C)[C@H](NC(=O)[C@H]1CCCCN1C)C(=O)N(C)[C@H](C[C@@H](OC)c1nc(C(=O)N[C@@H](Cc2ccccc2)C[C@H](C)C(=O)O)cs1)C(C)C`, the concentration for a half-maximal effect (EC50) in the assay on L-428 was 0.48 nM; in the assay with L-540, 0.12 nM. Further, the relative binding affinity (RBA) at Tubulin (Homo sapiens) came out at 0.42.
With `CCO[C@H](C[C@H](C(C)C)N(C)C(=O)[C@H](C)NC(=O)[C@H]1CCCCN1C)c1nc(C(=O)N[C@@H](Cc2ccccc2)C[C@H](C)C(=O)O)cs1`, the concentration giving a half-maximal response (EC50) in the assay on DEL came out at 21 nM; in the assay with L-540 it was 110 nM; in assay [1], 420 nM. On Tubulin (Homo sapiens), this compound registered a relative binding affinity (RBA) of 0.03.
Turning to `CC[C@H](C)[C@H](NC(=O)[C@H]1CCCCN1C)C(=O)N(C)[C@H](C[C@@H](OC(=O)C(C)C)c1nc(C(=O)N[C@@H](Cc2ccccc2)C[C@H](C)C(=O)O)cs1)C(C)C`, the EC50 is 0.12 nM in the assay with L-428 and 0.1 nM in the assay on L-540. The same compound showed a relative binding affinity (RBA) at Tubulin (Homo sapiens) of 0.36.
Taken in the same sequence, the figures for `CC[C@H](C)[C@H](NC(=O)[C@H]1CCCCN1C)C(=O)N(C)[C@H](C[C@@H](OCC(C)=O)c1nc(C(=O)N[C@@H](Cc2ccccc2)C[C@H](C)C(=O)O)cs1)C(C)C` were 1 nM, 0.6 nM and 0.27.
Turning to `CCO[C@H](C[C@H](C(C)C)N(C)C(=O)[C@@H](NC(=O)[C@H]1CCCCN1C)C1CCCCC1)c1nc(C(=O)N[C@@H](Cc2ccccc2)C[C@H](C)C(=O)O)cs1`, the 50% effective concentration (EC50) in the assay with DEL turned out to be 0.2 nM; in the assay with L-540 it was 1 nM; in assay [1], 6 nM. On Tubulin (Homo sapiens), the relative binding affinity (RBA) amounted to 0.4.

The term EC50 denotes the midpoint of the concentration-response curve. Low values mean higher potency in that assay, high ones lower potency in that assay.

The record behind these values is ChEMBL document CHEMBL4725251, “Structure-activity relationships of tubulysin analogues” (Bioorg Med Chem Lett, 2020).
